Results taken from paper PMC8438664 (ACS Infectious Diseases, 2021).

Columns and labels:
[1] = lipid II of VanA or VanB positive strains; cited from earlier work
[2] = system: conditionally immortalized proximal tubule epithelial cells (ciPTECs) overexpressing OAT-1; assay: ciPTEC cell viability assay; type: cell-based, human; conditions: 24 h, relative mitochondrial activity (PrestoBlue)

Compound: CN[C@H](CC(C)C)C(=O)N[C@H]1C(=O)N[C@@H](CC(N)=O)C(=O)N[C@H]2C(=O)N[C@H]3C(=O)N[C@H](C(=O)N[C@H](C(=O)O)c4cc(O)cc(O)c4-c4cc3ccc4O)[C@H](O)c3ccc(c(Cl)c3)Oc3cc2cc(c3O[C@@H]2O[C@H](CO)[C@@H](O)[C@H](O)[C@H]2O[C@H]2C[C@](C)(N)[C@H](O)[C@H](C)O2)Oc2ccc(cc2Cl)[C@H]1O [Vancomycin]
- fold reduction in binding affinity on mutation of D-Ala-D-Ala to D-Ala-D-Lac [1]: > 1000 fold
- viability at a concentration of 1 mM [2]: > 50%
